According to BindingDB's records for patent US9090621 (Principia Biopharma, 2015):

Molecular target: Tyrosine-protein kinase BTK (Homo sapiens, UniProt Q06187)
Assay: Enzymatic Activity Assay
Conditions: 25 °C
Procedure: A Caliper-based kinase assay (Caliper Life Sciences, Hopkinton, Mass.) was used to measure inhibition of Btk kinase activity of a compound of Formula (IA), (I′) or (I). […] The reaction was then terminated with EDTA, final concentration 20 mM and the phosphorylated reaction product was quantified on a Caliper Desktop Profiler (Caliper LabChip 3000).

Chain of Tyrosine-protein kinase BTK (Q06187 whole entry): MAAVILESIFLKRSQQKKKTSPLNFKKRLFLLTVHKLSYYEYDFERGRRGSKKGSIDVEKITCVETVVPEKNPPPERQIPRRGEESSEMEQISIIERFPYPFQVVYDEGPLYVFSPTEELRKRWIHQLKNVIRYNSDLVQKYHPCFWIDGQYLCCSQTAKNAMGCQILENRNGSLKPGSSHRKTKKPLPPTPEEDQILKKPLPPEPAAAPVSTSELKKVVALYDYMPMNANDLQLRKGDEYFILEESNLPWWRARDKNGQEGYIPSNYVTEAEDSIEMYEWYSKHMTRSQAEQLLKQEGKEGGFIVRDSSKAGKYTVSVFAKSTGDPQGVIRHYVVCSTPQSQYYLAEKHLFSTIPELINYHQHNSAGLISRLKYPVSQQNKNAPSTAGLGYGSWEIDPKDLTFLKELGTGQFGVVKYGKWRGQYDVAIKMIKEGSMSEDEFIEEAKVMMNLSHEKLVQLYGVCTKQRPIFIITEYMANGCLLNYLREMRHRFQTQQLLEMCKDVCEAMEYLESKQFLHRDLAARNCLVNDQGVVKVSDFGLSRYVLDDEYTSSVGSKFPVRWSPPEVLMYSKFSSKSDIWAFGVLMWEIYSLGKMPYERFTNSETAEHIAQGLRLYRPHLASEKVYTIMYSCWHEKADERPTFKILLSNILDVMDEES

IC50: 1 nM
SMILES: COc1cc(-c2nn(C3CCCN(C(=O)C(C#N)=CC4CC4)C3)c3ncnc(N)c23)ccc1Oc1ccc(Cl)c(Cl)c1 (stereo unspecified) [US9090621, 5]
